Laboratory results from patent US7744909B2, “Dispersions for the formulation of slightly or poorly soluble agents” (Abbott GmbH & Co., KG, priority 2000, dated 2010).
Converted amounts (≈) assume the structure as drawn.

Experiments:
[1] = Solubility of Amphotericin in standard oils (soya oil, Miglyol 812); format: physicochemical; details: oil or lipid
Method: The solubility of Amphotericin in soya oil (Long-chain Triglycerides—LCT) and in Miglyol 812 (Medium-chain Triglycerides—MCT), the standard oils for most commercially available emulsions for parenteral infusion is less than 0.0001 mg/ml.
(§1) The dispersions contains the active ingredient dissolved in an amount, which is greater than that amount which is the result of the mathematical addition of its maximal solubility in each of the water phase and the oil phase of the emulsion, which “addition amount” is determined under standard conditions (20° C., standard pressure) by dissolving the maximal amount of active ingredient in the separate oil and aqueous phases (maintaining the other dissolution conditions identical) corresponding to the proportions in the dispersion (saturation concentrations).

[2] = Additive solubility in oil and water phase versus quantity dissolved in the emulsion; format: physicochemical
Method: Preferably, the quantity of active ingredient dissolved is greater than the additive quantity by a factor of 2, more preferably 5, still more preferably 10 or even greater. The “additive quantity” is determined by dissolving the maximum possible quantity of active ingredient in the separate oily and aqueous phases (dissolving conditions being otherwise identical) corresponding to the constituents in the dispersion (saturation concentration), no further additional organic solvents being used. The dispersion according to the invention contains, in addition to the additive quantity, a superadditive quantity of dissolved active ingredient.
40 g emulsion from Example 1 consist 20% of oil (8 g) and ca. 80% of water (32 g). Thus on the basis of these solubilities, 8×0.0001 mg/ml plus 32×0.01 mg/ml, i.e. in total 0.3208 mg Amphotericin can be dissolved in 40 g emulsion components oil and water (i.e. approx. 0.008 mg/ml emulsion). In the present emulsion according to the invention 0.2 mg/ml emulsion could be incorporated (Example 1) without microscopic crystals of undissolved drug being detectable (Example 12).
Dissolved active ingredient is rapidly available. […] The solubility in water and oil phase amounts to, for example, 0.008 mg/ml in the case of Amphotericin B, the emulsion according to the invention dissolves without detectable crystals e.g. 0.2 mg/ml (Example 1). If 5 mg/ml dispersion is incorporated, the solubility is exceeded (supersaturated system).
as §1

[3] = oral administration; cited from earlier work
[4] = Solubility of Amphotericin B in water; format: physicochemical; details: for solubility: water
Method: Thus the solubility of Amphotericin B in water is less than 0.001% (<0.01 mg/ml) at pH 6-7, i.e. the pH value of the emulsion. It is true that the solubility of Amphotericin is higher with pH 2 and pH 11 (0.1 mg/ml), however these solutions cannot be administered intravenously.
as §1

solubility ([1]; Miglyol 812 (medium-chain triglycerides, MCT), read-out: solubility in Miglyol 812 (Medium-chain Triglycerides, MCT)): < 0.1 µg/mL | solubility ([1]; soya oil (long-chain triglycerides, LCT), read-out: solubility in soya oil (Long-chain Triglycerides, LCT)): < 0.1 µg/mL | quantity that can be dissolved in 40 g emulsion components oil and water ([2]; 8 g oil plus 32 g water, calculated from the separate solubilities): 0.3208 mg | solubility ([2]; 20 °C, oil or lipid, per ml emulsion, calculated from the separate solubilities): ~8 µg/mL (≈ 8.66 µM) | quantity dissolved in the emulsion without detectable crystals ([2]; emulsion according to the invention (Example 1), Lipofundin N 20%): 0.2 mg/mL | solubility in water and oil phase (additive quantity) ([2]; per ml emulsion, calculated from the separate solubilities): 8 µg/mL (≈ 8.66 µM) | solubility in water ([4]; pH 6-7, the pH value of the emulsion): less than 0.001% | solubility ([4]; pH 2, aqueous buffer, read-out: solubility): 100 µg/mL (≈ 108 µM) | solubility ([4]; pH 11, aqueous buffer, read-out: solubility): 100 µg/mL (≈ 108 µM) | solubility ([4]; pH 6-7, the pH value of the emulsion, read-out: solubility in water): < 10 µg/mL
Compound: C[C@@H]1[C@H](O)[C@@H](C)/C=C/C=C/C=C/C=C/C=C/C=C/C=C/[C@H](O[C@@H]2O[C@H](C)[C@@H](O)[C@H](N)[C@@H]2O)C[C@@H]2O[C@](O)(C[C@@H](O)C[C@@H](O)[C@H](O)CC[C@@H](O)C[C@@H](O)CC(=O)O[C@H]1C)C[C@H](O)[C@H]2C(=O)O [Amphotericin B]
bioavailability [3]: almost zero
